Experimental data as given in US6436966B1, “Adenosine A3 receptor antagonists” (Takeda Chemical Ind., Ltd., priority 1997, dated 2002).
pIC50: −log10 of the molar value. Structures can show the parent of a compound that is named as a salt.

Molecular target: T1, human adenosine A3 receptor (Homo sapiens, UniProt P0DMS8)
T1 construct: expressed in transfected cells; membrane fraction used
T1 sequence (P0DMS8 1-318): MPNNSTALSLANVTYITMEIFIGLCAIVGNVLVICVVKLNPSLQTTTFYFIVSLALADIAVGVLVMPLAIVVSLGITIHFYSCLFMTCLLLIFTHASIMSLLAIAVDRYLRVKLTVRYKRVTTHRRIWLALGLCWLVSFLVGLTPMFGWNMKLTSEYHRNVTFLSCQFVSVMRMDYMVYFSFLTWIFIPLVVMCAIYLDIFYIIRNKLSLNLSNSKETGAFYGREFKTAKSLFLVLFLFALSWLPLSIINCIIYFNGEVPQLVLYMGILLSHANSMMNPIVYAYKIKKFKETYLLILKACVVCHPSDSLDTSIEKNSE
Assay: Binding assay with adenosine A3 receptor: [3H]-NECA binding to membranes of A3AR/CHO cells
Conditions: 10 nM [3H]-NECA, 100 μg/ml A3AR/CHO cell membranes, 1 hour at room temperature; read-out: IC50 (concentration that inhibits 50% specific binding of [3H]-NECA to the membrane)
Description: (1) Cloning of Human Adenosine A3 Receptor
Cloning of the human adenosine A3 receptor gene was carried out by the polymerase chain reaction (PCR) from human brain cDNA. Using 1 ng of brain cDNA (Quick-Clone cDNA, TOYOBO, Osaka) as template, PCR was performed in DNA Thermal Cycler 480 (Perkin Elmer, Foster, Calif.) (reaction conditions: 35 cycles of 1 min at 95° C., 1 min at 66° C., and 2 min at 75° C.) by mixing primers (50 pmol each), 5′-[…]-3′ [Sequence No. 1] and 5′-[…]-3′ [Sequence No. 2], which were designed referring to nucleotide sequence of adenosine A3 receptor gene reported by Salvatore et. al., (Proc. Natl. Acad. Sci. U.S.A., 90:10365-10369, 1993) and TaKaRa LA PCR Kit Ver.2 (TaKaRa Shuzo Co. Ltd., Kyoto) in a Thermal cycler 480 (Parkin Elmer). The PCR product was electrophoresed and 1.0 kb DNA fragment was recovered. The DNA fragment encoding adenosine A3 receptor was cloned using Original TA Cloning Kit (FUNAKOSHI, Tokyo).
(3) Transfection of Adenosine A3 Receptor Expression Plasmid into CHO (dhfr^−) and the Expression
CHO (dhfr^−) cells were grown on Ham's F-12 medium (Nihon Selyaku, Tokyo) supplement with 10% fetal bovine serum (Life Tech Oriental; Life Technologies, Inc., Rockville, Md., USA) in a 750 ml Tissue culture flask (Becton Dickinson, Mt. View, Calif.). The growing cells were treated with 0.5 g/l trypsin-0.2 g/l EDTA (Life Technologies, Inc., Rockville, Md., USA) to harvest, washed with PBS (Life Technologies, Inc., Rockville, Md., USA), centrifugated at 1000 rpm for 5 min, and suspended in PBS. […] The cells were incubated in assay buffer I (HBSS (Wako chemicals, Osaka) containing 0.1% BSA, 0.25 mM PMSF, 1 μg/ml pepstatin, and 20 μg/ml leupeptin) to which was added 50 pM ^125I-AB-MECA (Amersham) as ligand, for 1 hour, and washed with assay buffer I. The radioactivity associated with the:.cell was measured in a γ-counter to select A3AR/CHO cells which specifically bind to the ligand. […]

| pIC50 | SMILES |
| --- | --- |
| 9.26 | COc1ccc(-c2nc(NC(C)=O)sc2-c2ccncc2)cc1 [13-89] |
| 9.15 | COc1ccc(-c2nc(NC(=O)C(C)C)sc2-c2cccnc2)cc1 [13-92] |
| 9.57 | COc1ccc(-c2nc(NC(C)=O)sc2-c2cccnc2)cc1 [Reference Example Compound 10, N-[4-(4-Methoxyphenyl)-5-(3-pyridyl)-1,3-thiazol-2-yl]acetamide] |

System: not given
Assay: not given
Conditions: not given

| SMILES | melting point [°C] |
| --- | --- |
| COc1ccc(-c2nc(NC(=O)C(C)C)sc2-c2cccnc2)cc1 [13-92] | 213 to 216 |
| CC(=O)Nc1nc(-c2ccncc2)c(-c2cc(C)cc(C)c2)s1 [Example Compound 5-2, N-[5-(3,5-dimethylphenyl)-4-(4-pyridyl)-1,3-thiazol-2-yl]acetamide] | 304 to 308 |

Second part, the compound after the results:

| melting point [°C] | SMILES |
| --- | --- |
| 275 to 278 | COc1ccc(-c2nc(NC(C)=O)sc2-c2ccncc2)cc1 (as salt: HCl) [13-89] |
| 275 to 277 | CC(C)(C)c1ccc(-c2sc(N)nc2-c2ccncc2)cc1 [Example Compound 4-1, [5-[4-(1,1-dimethylethyl)phenyl]-4-(4-pyridyl)-1,3-thiazol-2-yl]amine] |
| 262 to 263 | Cc1cc(C)cc(-c2sc(N)nc2-c2ccncc2)c1 [Example Compound 4-2, [5-(3,5-dimethylphenyl)-4-(4-pyridyl)-1,3-thiazol-2-yl]amine] |
| 245 to 246 | CC(=O)Nc1nc(-c2ccncc2)c(-c2ccc(C(C)(C)C)cc2)s1 [Example Compound 5-1, N-[5-[4-(1,1-dimethylethyl)phenyl]-4-(4-pyridyl)-1,3-thiazol-2-yl]acetamide] |
